Experimental data from patent publication US20110091577A1, “DRUG RELEASE COATINGS ON CALCUIM PHOSPHATE AND USES THEREOF” (priority 2008, published 2011).

Experiments:
[1] = Gentamicin release study, parallel release reactions in PBS buffer; assay type: physicochemical; details: FIG. 2A; 6.0 mg solid in 1.50 mL PBS, 37° C., pH 7.4
Protocol: Gentamicin and vancomycin loading and release are presented for a homopolymer system where the antibiotic gentamicin or vancomycin is bound to hydroxyapatite (HA) using commercially available poly-L-glutamate. This corresponds to the schematic illustrated in FIG. 1A. The experiment consisted of producing gentamicin or vancomycin adsorbed on poly-L-glutamate coated hydroxyapatite, and measuring the drug's rate of release into phosphate-buffered saline at 20° C. or 37° C. and pH 7.4, relative to a drug/hydroxyapatite control without the polymer. Gentamicin release study—Parallel release reactions: Gentamicin release rates from the experimental sample (G/pgHA) and control (G/HA) were measured by running multiple release reactions of each in parallel and stopping the reactions at different times. In each release sample 6.0 mg of solid was mixed in 1.50 mL of PBS buffer in an Eppendorf tube in a 37° C. shaker bath. Samples were removed from the bath at 15 minute intervals, centrifuged for 30 seconds, and the supernatant saved for later analysis.

staphylococci = details: literature value (de Neeling et al., 1998); cited from earlier work

## gentamicin
[1]
  time for adsorbed gentamicin to reach equilibrium with the buffer: within one hour
staphylococci
  minimum inhibitory concentration required to kill staphylococci: 4 µg/mL
